The values that follow come from patent publication US20260272934A1 (The United States of America, as represented by the …, priority 2023, published 2026).

Series [1] relates to multiple myeloma-derived L363 cells. As to the kind of experiment: Colorimetric MTS cell viability assay. Format: cell-based. The conditions noted are these: for Cell efficacy (GI50) Mean ± SD: N.S. = Not significant; for GI50: Homo sapiens, L-363, N.S. = Not significant, read-out: Cell efficacy (GI50) Mean ± SD. From the text:
• *Data from Park, J. E., et al {Park, 2023 #3387}. **Data from Alverez C. N., et al {Alverez, 2020 #3186}. N. S., Not significant; N. D., Not determined. ^a IC50 values determined from at least three independent experiments except as noted in parentheses. b A colorimetric MTS cell viability assay carried out using multiple myeloma-derived L363 cells.

Another series concerns Plk2 PBD. As to the kind of experiment: FP-based inhibition assay. Format: binding. The conditions noted are these: N.S. = Not significant. As to the method: (§1) In the following, PBD1-3 fluorescence polarization (FP) binding assays were carried out for determining the Plk1 specificity. FP assays were carried out essentially as described previously {Liu, 2011 #2790; Qian, 2014 #1416}. All samples were analyzed approximately 30 min after reaction in a 384-well format using the SpectraMax Paradigm multi-mode microplate detection platform (Molecular Devices). Data were analyzed after carrying out at least three independent experiments using GraphPad Prism software version 7.

The next series deals with Plk3 PBD. As to the kind of experiment: FP-based inhibition assay. The conditions noted are these: N.S. = Not significant. Format: binding. As to the method:
as §1

The target in the next series is PBD1 (Homo sapiens, UniProt P53350). As to the kind of experiment: FP-based inhibition assay. Format: binding. The conditions noted are these: read-out: PBD1 IC50 ± SD. As to the method: In the following, PBD1-3 fluorescence polarization (FP) binding assays were carried out for determining the Plk1 specificity. […] All samples were analyzed approximately 30 min after reaction in a 384-well format using the SpectraMax Paradigm multi-mode microplate detection platform (Molecular Devices). Data were analyzed after carrying out at least three independent experiments using GraphPad Prism software version 7.

The target in series [2] is T1, full-length Plk1 / biotinylated PBIP1 phospho-T78 peptide interaction (Homo sapiens, UniProt P53350).
T1 construct: HA; EGFP; expressed in transfected cells; host or cells: HEK293A cells infected with adenovirus; total lysates
The note with it: *Data from Park, J. E., et al 2023; read-out: ELISA (IC50) Mean ± SEM; cited from earlier work.

The subject of series [3] is multiple myeloma-derived L363 cells. The note with it: MTS, *Data from Park, J. E., cited from earlier work.
The conditions of series [4]: *Data from Park, J. E., et al 2023; cited from earlier work.
Series [5] addresses T1, full-length Plk1 / biotinylated PBIP1 phospho-T78 peptide interaction. As to the kind of experiment: ELISA-based PBD1-binding inhibition assay. The note with it: at least three independent experiments; read-out: ELISA (IC50) Mean ± SEM.
Series [6] in a line: Solubility remark in Table 1. Format: physicochemical.

Structures are written as SMILES. Like-named read-outs stand apart in the source and are kept apart here.

T1 sequence (P53350 whole entry): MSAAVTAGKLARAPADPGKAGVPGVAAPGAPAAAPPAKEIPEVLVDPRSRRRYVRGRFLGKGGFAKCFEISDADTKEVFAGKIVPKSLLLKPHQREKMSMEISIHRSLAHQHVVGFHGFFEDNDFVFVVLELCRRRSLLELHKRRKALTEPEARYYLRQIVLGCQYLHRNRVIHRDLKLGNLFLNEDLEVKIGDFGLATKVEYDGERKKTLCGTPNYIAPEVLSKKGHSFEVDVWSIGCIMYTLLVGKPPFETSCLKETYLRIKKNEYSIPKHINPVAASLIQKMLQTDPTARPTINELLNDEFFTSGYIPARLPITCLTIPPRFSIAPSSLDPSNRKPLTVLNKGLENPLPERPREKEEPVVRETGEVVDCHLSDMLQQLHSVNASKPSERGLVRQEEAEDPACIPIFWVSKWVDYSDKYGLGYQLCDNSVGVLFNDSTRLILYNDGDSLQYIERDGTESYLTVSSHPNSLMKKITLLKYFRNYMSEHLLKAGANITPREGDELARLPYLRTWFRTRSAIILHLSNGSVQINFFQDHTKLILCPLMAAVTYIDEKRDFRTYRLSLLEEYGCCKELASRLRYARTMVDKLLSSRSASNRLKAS
Sequence of PBD1 (P53350 371-594 limits assumed): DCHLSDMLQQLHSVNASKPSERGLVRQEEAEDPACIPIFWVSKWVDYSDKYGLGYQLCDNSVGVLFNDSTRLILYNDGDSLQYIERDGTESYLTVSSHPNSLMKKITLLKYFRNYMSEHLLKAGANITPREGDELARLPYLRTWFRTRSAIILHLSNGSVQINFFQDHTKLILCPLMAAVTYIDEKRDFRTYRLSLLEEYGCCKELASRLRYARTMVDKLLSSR

With `CC(=O)N1CCC[C@H]1C(=O)N[C@@H](CC(C)C)C(=O)N[C@@H](Cc1cnc[nH]1)C(=O)N[C@@H](CO)C(=O)N[C@H](C(=O)O)[C@@H](C)O` [Compound 1, PLHST, reference compound], the “Cell efficacy (GI50) Mean ± SD” value in series [1] was “N.S”.

For `CC(=O)N1CCC[C@H]1C(=O)N[C@@H](CC(C)C)C(=O)N[C@@H](Cc1cnc[nH]1)C(=O)N[C@@H](CO)C(=O)N[C@H](C(=O)O)[C@@H](C)OP(=O)(O)O` [Compound 2, PLHSpT, reference compound], the “Cell efficacy (GI50) Mean ± SD” value in [1] is “N.S”. In the series on Plk2 PBD, the “Plk2 PBD IC50 ± SD” value is given as “N.S”. Besides, in the series on Plk3 PBD, the “Plk3 PBD IC50 ± SD” value is “N.S”.

Consider `CCCn1c(=O)c2sc(C)cc2n2c(=S)[nH]nc12` [Compound 3], for which the IC50 is 0.0102 ± 0.0015 µM on PBD1 and 2.15 ± 0.13 µM in series [2]. Moreover, the “Plk2 PBD IC50 ± SD” value with Plk2 PBD is “N.S”. Moreover, the “Plk3 PBD IC50 ± SD” value in the series on Plk3 PBD was “N.S”. Moreover, the “Cell efficacy (GI50) Mean ± SD” value in [3] (et al 2023) is listed as “N.S”.

As for `CCCn1c(=O)c2sc(C)cc2n2c(Sc3c([N+](=O)[O-])ncn3C)nnc12` [Compound 4], the IC50 in [2] was more than 50 µM. Further, the 50% growth inhibitory concentration (GI50) in [3] (et al 2023, read-out: Cell efficacy (GI50) Mean ± SD) was 4.88 ± 0.1 µM. Further, in series [4], the “solubility” value is on record as “low solubility”.

For the compound `Cc1cc2c(s1)c(=O)n(CC1CC1)c1n[nH]c(=S)n21` [Compound 5, 4-(Cyclopropylmethyl)-7-methyl-1-thioxo-2,4-dihydrothieno[2,3-e][1,2,4]triazolo[4,3-a]pyrimidin-5 (1H)-one], the IC50 was 1.66 ± 0.04 µM in series [5] and 0.0128 ± 0.0026 µM on PBD1. Moreover, the “Cell efficacy (GI50) Mean ± SD” value in series [1] was “N.S”. Further, the “Plk2 PBD IC50 ± SD” value in the series with Plk2 PBD is listed as “N.S”. Further, in the series on Plk3 PBD, the “Plk3 PBD IC50 ± SD” value is recorded as “N.S”.

As to `Cc1cc2c(s1)c(=O)n(CC1CC1)c1nnc(Sc3c([N+](=O)[O-])ncn3C)n21` [Compound 6, 4-(Cyclopropylmethyl)-7-methyl-1-((1-methyl-4-nitro-1H-imidazol-5-yl)thio) thieno[2,3-e][1,2,4]triazolo[4,3-a]pyrimidin-5 (4H)-one], the IC50 in series [5] was more than 50 µM. Moreover, in [1], the GI50 was 3.13 ± 0.15 µM. In series [6], the “solubility” value is on record as “low solubility”.

Turning to `CCCn1c(=O)c2oc3ccccc3c2n2c(Sc3c([N+](=O)[O-])ncn3C)nnc12` [Compound 8, 1-((1-Methyl-4-nitro-1H-imidazol-5-yl)thio)-4-propylbenzofuro[2,3-e][1,2,4]triazolo[4,3-a]pyrimidin-5(4H)-one], the IC50 in series [5] is more than 50 µM. Moreover, the GI50 in [1] worked out at 8.31 ± 0.56 µM.

In the case of `CCCn1c(=O)c2oc3cccc(F)c3c2n2c(Sc3c([N+](=O)[O-])ncn3C)nnc12` [Compound 10, 10-Fluoro-1-((1-methyl-4-nitro-1H-imidazol-5-yl)thio)-4-propylbenzofuro[2,3-e][1,2,4]triazolo[4,3-a]pyrimidin-5 (4H)-one], in [5], the IC50 was more than 50 µM. Moreover, the GI50 in [1] was 7.53 ± 0.43 µM.

Regarding `CCCn1c(=O)c2sccc2n2c(Sc3c([N+](=O)[O-])ncn3C)nnc12` [Compound 12, 1-((1-Methyl-4-nitro-1H-imidazol-5-yl)thio)-4-propylthieno[2,3-e][1,2,4]triazolo[4,3-a]pyrimidin-5 (4H)-one], the IC50 in series [5] is more than 50 µM. In addition, in [1], the 50% growth inhibitory concentration (GI50) is 8.4 ± 0.74 µM. In addition, in [6], the “solubility” value is given as “moderate solubility”.

In the case of `CCCn1c(=O)c2sc(Cl)cc2n2c(Sc3c([N+](=O)[O-])ncn3C)nnc12` [Compound 14, 7-Chloro-1-((1-methyl-4-nitro-1H-imidazol-5-yl)thio)-4-propylthieno[2,3-e][1,2,4]triazolo[4,3-a]pyrimidin-5 (4H)-one], the IC50 in series [5] was more than 50 µM. In addition, the GI50 in series [1] amounted to 6.04 ± 0.17 µM.

Regarding `CCCn1c(=O)c2sc(C(C)(C)C)cc2n2c(Sc3c([N+](=O)[O-])ncn3C)nnc12` [Compound 16, 7-(tert-Butyl)-1-((1-methyl-4-nitro-1H-imidazol-5-yl)thio)-4-propylthieno[2,3-e][1,2,4]triazolo[4,3-a]pyrimidin-5 (4H)-one], the half-inhibitory concentration (IC50) in [5] was more than 50 µM. Also, the 50% growth inhibitory concentration (GI50) in series [1] turned out to be 4.19 ± 0.15 µM. For the same compound, in [6], the “solubility” value was “moderate solubility”.

Consider `CCCn1c(=O)c2sc3ccccc3c2n2c(Sc3c([N+](=O)[O-])ncn3C)nnc12` [Compound 18, 1-((1-Methyl-4-nitro-1H-imidazol-5-yl)thio)-4-propylbenzo[4,5]thieno[2,3-e][1,2,4]triazolo[4,3-a]pyrimidin-5 (4H)-one], for which the IC50 in series [5] was more than 50 µM. Moreover, the GI50 in [1] was 7.05 ± 0.27 µM.

As for `O=C(CCCCC1SCC2NC(=O)NC21)NCCOCCOCCOCCOCCC(=O)NCCCn1c(=O)c2cc(F)ccc2n2c(=S)[nH]nc12` (centres unmarked) [Compound 22, N-(3-(7-Fluoro-5-oxo-1-thioxo-1,2-dihydro-[1,2,4]triazolo[4,3-a]quinazolin-4 (5H)-yl)propyl)-1-(5-(2-oxohexahydro-1H-thieno[3,4-d]imidazol-4-yl)pentanamido)-3,6,9,12-tetraoxapentadecan-15-amide], the half-maximal inhibitory concentration (IC50) in series [5] came to 9.32 ± 0.17 µM.
